Reference: ChEMBL document CHEMBL1255230, “Chemical inhibitor of nonapoptotic cell death with therapeutic potential for ischemic brain injury” (Nat Chem Biol, 2005)
Calls of active or inactive are those of the source. The rule behind the calls is not given here. Residues, ends and D or L forms follow the SMILES beside them. *: point of attachment. Cbz = O=C(OCc1ccccc1)*; CH2F = FC*

Experiments:
Mus musculus [1] = assay: Inhibition of necroptosis in icv dosed mouse middle cerebral artery occlusion induced ischemic injury model assessed as reduction of infarct volume drug administered 6 hrs postocclusion; format: functional, organism-based
Mus musculus [2] = assay: Inhibition of caspase3 in icv dosed mouse middle cerebral artery occlusion induced ischemic injury model after 3 hrs by Western blot method drug administered before occlusion; format: functional, organism-based
Mus musculus [3] = assay: Inhibition of necroptosis in icv dosed mouse middle cerebral artery occlusion induced ischemic injury model assessed as reduction of infarct volume; format: functional, organism-based
Mus musculus [4] = assay: Inhibition of necroptosis in icv dosed mouse middle cerebral artery occlusion induced ischemic injury model assessed as reduction of infarct volume drug administered 4 hrs postocclusion; format: functional, organism-based
[5] = Inhibition of death receptor signaling mediated necroptotic cell death in human Jurkat cell deficient in FADD assessed as cell viability after 30 hrs by ATP based viability assay in presence of TNFalpha
Mus musculus [6] = assay: Inhibition of necroptosis in icv dosed mouse middle cerebral artery occlusion induced ischemic injury model assessed as induction of LC3-II after 5 hrs by Western blot method; format: functional, organism-based
Mus musculus [7] = assay: Inhibition of necroptosis in icv dosed mouse middle cerebral artery occlusion induced ischemic injury model assessed as improvement in neurological score drug administration after occlusion; format: functional, organism-based
Mus musculus [8] = assay: Inhibition of necroptosis in icv dosed mouse middle cerebral artery occlusion induced ischemic injury model assessed as induction of LC3-II by Western blot method drug administered 6hrs postocclusion; format: functional, organism-based
Mus musculus [9] = assay: Inhibition of necroptosis in icv dosed mouse middle cerebral artery occlusion induced ischemic injury model assessed as reduction of infarct volume drug administered 2 hrs postocclusion; format: functional, organism-based
Mus musculus [10] = assay: Inhibition of necroptosis in mouse middle cerebral artery occlusion induced ischemic injury model assessed as reduction of infarct volume at 2-4 mM, icv before occlusion; format: functional, organism-based
Mus musculus [11] = assay: Inhibition of necroptosis in icv dosed mouse middle cerebral artery occlusion induced ischemic injury model assessed as induction of LC3-II after 26 hrs by Western blot method; format: functional, organism-based
Mus musculus [12] = assay: Inhibition of necroptosis in mouse middle cerebral artery occlusion induced ischemic injury model assessed as reduction of infarct volume at 2-4 mM, icv after occlusion; format: functional, organism-based
Mus musculus [13] = assay: Inhibition of necroptosis in icv dosed mouse middle cerebral artery occlusion induced ischemic injury model assessed as improvement in neurological score drug administration before occlusion; format: functional, organism-based
Mus musculus [14] = assay: Inhibition of necroptosis in icv dosed mouse middle cerebral artery occlusion induced ischemic injury model assessed as reduction of infarct volume drug administered 5 mins preocclusion; format: functional, organism-based
Jurkat = assay: Ratio of compound IC50 to Nec-1 IC50 for human jurkat cells; format: functional
Mus musculus [15] = assay: Inhibition of necroptosis in icv dosed mouse middle cerebral artery occlusion induced ischemic injury model assessed as induction of LC3-II after 8 hrs by Western blot method; format: functional, organism-based
Mus musculus [16] = assay: Inhibition of necroptosis in icv dosed mouse middle cerebral artery occlusion induced ischemic injury model assessed as induction of LC3-II by Western blot method drug administered 4 hrs postocclusion; format: functional, organism-based
Mus musculus [17] = assay: Inhibition of necroptosis in icv dosed mouse middle cerebral artery occlusion induced ischemic injury model assessed as induction of LC3-II by Western blot method drug administered 8 hrs postocclusion; format: functional, organism-based

In the case of `CC(C)[C@H](NC(=O)OCc1ccccc1)C(=O)N[C@@H](C)C(=O)N[C@@H](CC(=O)O)C(=O)CF` (Cbz-Val-Ala-Asp-CH2F), the inhibition (Mus musculus [1]) is reported as “inactive” and the inhibition (Mus musculus [2]) is reported as “Active”.

For `O=C1NC(=S)NC1Cc1c[nH]c2ccccc12` (configuration not stated), the inhibition (Mus musculus [3]) was “inactive”.

In the case of `CN1C(=O)NC(Cc2c[nH]c3c(Cl)cccc23)C1=O` (configuration not stated), the inhibition (Mus musculus [4]) is reported as “Active”, the inhibition (Mus musculus [1]) is reported as “Active” and the IC50 [5] is reported as 206 nM.

With `CN1C(=O)C(Cc2c[nH]c3c(Cl)cccc23)NC1=S` (configuration not stated) the Activity (Mus musculus [6]) was “Active”, the inhibition (Mus musculus [7]) was “Dose-dependent effect” and the Activity (Mus musculus [8]) was “Active”. The inhibition (Mus musculus [9]) was “Active”, the inhibition (Mus musculus [10]) was “Dose-dependent effect” and the inhibition (Mus musculus [1]) was “Active”. The Activity (Mus musculus [11]) was “Active”, the inhibition (Mus musculus [12]) was “Dose-dependent effect” and the inhibition (Mus musculus [13]) was “Dose-dependent effect”. For the same molecule, the inhibition (Mus musculus [14]) was “Active”, the IC50 [5] was 182 nM and the “fold change (FC)” value (Jurkat) was 2.7. For the same molecule, the Activity (Mus musculus [15]) was “Active”, the Activity (Mus musculus [16]) was “Active” and the inhibition (Mus musculus [2]) was “inactive”. For the same molecule, the Activity (Mus musculus [17]) was “Active”.
